Test results: patent US6960608B2, “Fused indazoles and indoles and their use for the treatment of glaucoma” (Alcon, Inc., priority 2001, dated 2005)

Columns and labels:
[1] = molecular target: T1, 5-HT2 receptor (Rattus norvegicus, UniProt P14842); assay: 5-HT2 functional assay: phosphoinositide (PI) turnover assay; format: cell-based; conditions: for Emax: A7R5, read-out: Efficacy (Emax, %)
T1 construct: A7r5 rat vascular smooth muscle cells; endogenous in cells; host or cells: A7r5 rat vascular smooth muscle cells
Protocol: The relative agonist activity of serotonergic compounds at the 5-HT2 receptor can be determined in vitro using the ability of the compounds to stimulate the production of [^3H]inositol phosphates in [^3H]myo-inositol-labeled A7r5 rat vascular smooth muscle cells by their ability to activate the enzyme phospholipase C. These cells are grown in culture plates, maintained in a humidified atmosphere of 5% CO2 and 95% air and fed semi-weekly with Dulbecco's modified Eagle medium (DMEM) containing 4.5 g/L glucose and supplemented with 2 mM glutamine, 10 μg/ml gentamicin, and 10% fetal bovine serum. For the purpose of conducting the phosphoinositide (PI) turnover experiments, the A7r5 cells are cultured in 24-well plates as previously [J. Pharmacol. Expt. Ther. 286, 411 (1998)]. Confluent cells are exposed for 24-30 hrs to 1.5 μCi [^3H]-myo-inositol (18.3 Ci/mmol) in 0.5 mL of serum-free medium. Cells are then rinsed once with DMEM/F-12 containing 10 mM LiCl prior to incubation with the test agent (or solvent as the control) in 1.0 mL of the same medium for 1 hr at 37° C., after which the medium is aspirated and 1 mL of cold 0.1 M formic acid added to stop the reaction. The chromatographic separation of [^3H]-inositol phosphates ([^3H]-IPs) on an AG-1-X8 column is performed as previously described [J. Pharmacol. Expt. Ther. 286, 411 (1998)] with sequential washes with H2O and 50 mM ammonium formate, followed by elution of the total [^3H]-IPs fraction with 1.2 M ammonium formate containing 0.1 M formic acid. The eluate (4 mL) is collected, mixed with 15 ml scintillation fluid, and the total [^3H]-IPs determined by scintillation counting on a beta-counter. Concentration-response data are analyzed by the sigmoidal fit function of the Origin Scientific Graphics software (Microcal Software, Northampton, MA) to determine agonist potency (EC50 value) and efficacy (Emax).

[2] = system: lasered (hypertensive) eyes of conscious cynomolgus monkeys; assay: Acute IOP response in lasered (hypertensive) eyes of conscious cynomolgus monkeys; format: in vivo, cynomolgus monkey; conditions: 300 μg topical, lasered eye
Protocol: Intraocular pressure (IOP) was determined with an Alcon Pneumatonometer after light corneal anesthesia with 0.1% proparacaine. Eyes were washed with saline after each measurement. After a baseline IOP measurement, test compound was instilled in one 30 μL aliquot to the right eyes only of nine cynomolgus monkeys. Vehicle was instilled in the right eyes of six additional animals. Subsequent IOP measurements were taken at 1, 3, and 6 hours. A compound is considered efficacious in this model of ocular hypertension if there is a decrease in the baseline IOP of the lasered eye (O.D.) of at least 20% following topical administration.

T1 sequence (P14842 whole entry): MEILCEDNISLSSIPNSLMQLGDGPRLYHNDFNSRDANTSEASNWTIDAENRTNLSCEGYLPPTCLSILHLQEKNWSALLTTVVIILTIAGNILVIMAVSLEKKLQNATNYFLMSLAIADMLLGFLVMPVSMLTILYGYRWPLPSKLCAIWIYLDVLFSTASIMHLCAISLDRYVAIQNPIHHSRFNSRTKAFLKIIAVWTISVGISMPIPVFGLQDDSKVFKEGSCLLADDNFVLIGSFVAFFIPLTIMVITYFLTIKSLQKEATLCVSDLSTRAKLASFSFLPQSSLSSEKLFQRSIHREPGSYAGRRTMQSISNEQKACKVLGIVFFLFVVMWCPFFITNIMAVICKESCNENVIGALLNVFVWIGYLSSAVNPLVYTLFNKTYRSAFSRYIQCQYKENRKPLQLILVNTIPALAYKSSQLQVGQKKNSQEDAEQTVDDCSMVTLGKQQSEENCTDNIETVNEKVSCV

**Q.** Which results are given for `CC(N)Cn1nc2c3c(cc(O)cc31)CCC2.Cl.Cl` (stereo not drawn) [Example 1, 2-(2-Aminopropyl)-2,6,7,8-tetrahydro-benzo[cd]indazol-4-ol dihydrochloride]?
**A.** EC50 [1]: 0.374 µM; Emax [1]: 85%; Percent Change in IOP ± SEM ([2]; 1 hour after dose): −5.9 ± 2.69%; Percent Change in IOP ± SEM ([2]; 3 hours after dose): −20.0 ± 3.54%; Percent Change in IOP ± SEM ([2]; 6 hours after dose): −21.6 ± 4.91%; melting point: 286 to 288 °C

**Q.** Which EC50 [1] does the source give for `CC(N)Cn1nc2c3c(ccc(O)c31)CCC2.Cl.Cl` (stereo not drawn) [Example 2, 2-(2-Aminopropyl)-2,6,7,8-tetrahydro-benzo[cd]indazol-3-ol dihydrochloride] here?
**A.** 1.44 µM

**Q.** What about the Emax [1] of the same molecule?
**A.** 55%

**Q.** And the melting point?
**A.** 284 to 286 °C
